# Reference: patent publication US5317019A, “Inhibition of interleukin-1 and tumor necrosis factor production by monocytes and/or macrophages” (priority 1991, dated 1994)
# Where two headings read alike, the source gives them in different places.
# Assays:
# [1] = system: IL-1 production by human monocytes; test: In vitro IL-1 production by LPS-stimulated human monocytes; type: cell-based
# Procedure: Bacterial lipopolysaccharide (LPS) was used to induce IL-1 production by human peripheral blood monocytes. IL-1 activity was measured by its ability to stimulate a Interleukin 2 (IL-2) producing cell line […] to secrete IL-2, in concert with A23187 ionophore, according to the method of Simon et al., J. Immunol. […] The cells were allowed to adhere for 2 hours, after which time non-adherent cells were removed by gentle washing. […] At the end of the incubation period, culture supernatants were removed and clarified of cells and all debris.
# [2] = system: TNF production by human monocytes; test: In vitro TNF production by LPS-stimulated human monocytes (ELISA); type: cell-based; settings: Table B, LPS 50 ng/ml, 24 h, read-out: IC50, LPS induced TNF human monocyte data
# Procedure: The effects of the compounds enumerated above on the in vitro production of TNF by human monocytes was examined using the following protocol.
# Bacterial lipopolysaccharide (LPS) was used to induce TNF production by human peripheral blood monocytes. TNF activity was measured by a modification of Winston et al., ELISA, described below. […] The cells were allowed to adhere for 2 hours, after which time non-adherent cells were removed by gentle washing. […] At the end of the incubation period, culture supernatants were removed and clarified of cells and all debris. Culture supernatants were immediately assayed for TNF levels in the manner described below.
# The Elisa employes a murine monoclonal anti-human TNF antibody, described below, as the capture antibody and a polyclonal rabbit anti-human TNF, described below, as the second antibody. […] TNF levels in samples were calculated from a standard curve genereated with recombinant human TNF produced in E. Coli (obtained from SmithKIine Beecham Pharmaceuticals, King of Prussia, Pa., USA).
# Polyclonal rabbit anti-human TNF antibodies were prepared by repeated immunization of New Zeland White (NZW) rabbits with recombinant human TNF emulsified in complete Freund's adjuvant (DEFCO, Ill., USA).
# [3] = Table 3, read-out: IC50, inhibition of IL-1 production by LPS stimulated monocytes in vitro
# [4] = Homo sapiens, Monocyte, Table 1, LPS 50 ng/ml, 24 h, read-out: IC50, effect on LPS-stimulated IL-1 production by human monocytes
# [5] = Homo sapiens, Monocyte, Table 3, read-out: IC50, inhibition of IL-1 production by LPS stimulated monocytes in vitro
"IC50 [1, 4] [nM]","IC50 [1, 5] [nM]",Compound,other results
,,"2-(Acetyl-thio-phenyl)-3-(4-pyridyl)-6,7-dihydro[5H]-pyrrolo-[1,2-a]-imidazole [Compound 20]","IC50 [1, 3]: > 10000 nM"
,,"2-[Trimethylacetyl(thiophenyl)]-3-(4-pyridyl)-6,7-dihydro[5H]pyrrolo-[1,2-a]-imidazole [Compound 16]","IC50 [1, 3]: > 10000 nM"
,,"2-p-bromophenyl-3-pyridyl-6,7-dihydro-[5H]-pyrrolo-[1,2-a]-imidazole [Compound D]",IC50 [2]: 1000 nM
,,"2-phenyl-3-pyridyl-6,7-dihydro-[5H]-pyrrolo[1,2-a]imidazole [Compound C]",IC50 [2]: 800 nM
1000,,"COc1ccc(-c2nc3ccccn3c2-c2ccncc2)cc1 [Compound 7, 2-(4-methoxyphenyl)-3-(4-pyridyl)-imidazo-[1,2-a]-pyridine]",
10000,,"c1cc(-c2nc3n(c2-c2ccc4c(c2)OCO4)CCS3)ccn1 [Compound 8, 5-(3,4-(methylenedioxy)phenyl)-6-(4-pyridyl)-2,3-dihydroimidazo-[2-1-b]-thiazole]",
700,,"COc1ccc(-c2nc3n(c2-c2ccnc(C)c2)CCC3)cc1 [Compound 9, 2-(4-methoxyphenyl)-3-(4-(2-methyl)pyridyl)-6,7-dihydro-[5H]-pyrrolo-[1,2-a]-imidazole]",
1800,,"CSc1ccc(-c2nc3n(c2-c2ccncc2)CCS3)cc1 [Compound 11, 6-(4-methylthiophenyl)-5-(4-pyridyl)-2,3-dihydro-imidazo-[2,1-b]-thiazole]",
1800,,"CSc1ccc(-c2c(-c3ccncc3)nc3n2CCS3)cc1 [Compound 12, 5-(4-methylthiophenyl)-6-(4-pyridyl)-2,3-dihydro-imidazo-[2,1-b]-thiazole]",
2000,,"CSc1ccc(-c2c(-c3ccncc3)nc3n2CCC3)cc1 [Compound 13, 3-(4-methylthiophenyl)-2-(4-pyridyl)-6,7-dihydro-[5H]-pyrrolo-[1,2-a]-imidazole]",
> 10000,,"CCCSc1ccc(-c2nc3n(c2-c2ccncc2)CCC3)cc1 [Compound 14, 2-(4-propylthiophenyl)-3-(4-pyridyl)-6,7-dihydro-[5H]-pyrrolo-[1,2-a]-imidazole]",
1300,,"CCc1cc(-c2c(-c3ccc(SC)cc3)nc3n2CCC3)ccn1 [Compound 15, 2-(4-methylthiophenyl)-3-(4-(2-ethyl)pyridyl)-6,7-dihydro-[5H]-pyrrolo-[1,2-a-]-imidazole]",
,> 10000,"CC(C)Oc1ccc(-c2nc3n(c2-c2ccncc2)CCC3)cc1 [Compound 17, 2-(4-(2-Propoxy)phenyl)-3-(4-pyridyl)-6,7-dihydro-[5H]-pyrrolo-[1,2-a]-imidazole]",
,10000,"CCOc1ccc(-c2nc3n(c2-c2ccncc2)CCC3)cc1 [Compound 18, 2-(4-(1-Ethoxy)phenyl)-3-(4-pyridyl)-6,7-dihydro[5H]pyrrolo-[1,2-a]-imidazole]",
,> 10000,"CCCOc1ccc(-c2nc3n(c2-c2ccncc2)CCC3)cc1 [Compound 19, 2-(4-(1-Propoxy)phenyl)-3-(4-pyridyl)-6,7-dihydro[5H]pyrrolo-[1,2-a]-imidazole]",
,,"COc1ccc(-c2c(-c3ccncc3)n3c([n+]2C)CCC3)cc1 [Compound 21, 2-(4-Methoxyphenyl)-3-(4-pyridyl)-6,7-dihydro-[5H]-pyrrolo-[1,2-a]-N-methylimidazole, monomethylsulfate]","IC50 [1, 3]: > 10000 nM"
,500,"c1ccc(-c2nc3n(c2-c2ccncc2)CCC3)cc1 [Compound 22, 2-Phenyl-3-(4-pyridyl)-6,7-dihydro-[5H]-pyrrolo-[1,2-a]imidazole]",
,5900,"c1cc(-c2c(-c3ccc(SSc4ccc(-c5nc6n(c5-c5ccncc5)CCC6)cc4)cc3)nc3n2CCC3)ccn1 [Compound 23, 2-(4-Mercaptophenyl)-3-(4-pyridyl)-6,7-dihydro-[5H]-pyrrolo-[1,2-a]-imidazole disulfide]",
,100,"COc1ccc(-c2nc3n(c2-c2ccncc2)CCC3)cc1 [Compound 24, 2-(4-Methoxyphenyl)-3-(4-pyridyl)-6,7-dihydro-[5H]-pyrrolo-[1,2-a]-imidazole]","IC50 ([2]; Homo sapiens, Monocyte): 500 nM"
,3000,"COc1ccc(-c2nc3n(c2-c2ccncc2)CCS3)cc1 [Compound 25, 6-(4-Methoxyphenyl)-5-(4-pyridyl)-2,3-dihydroimidazo-[2,1-b]-thiazole]",
,≥ 10000,"COc1ccc(-c2c(-c3ccncc3)nc3n2CCS3)cc1 [Compound 26, 5-(4-Methoxyphenyl)-6-(4-pyridyl)-2,3-dihydroimidazole-[2,1-b]-thiazole]",
,700,"Brc1ccc(-c2nc3n(c2-c2ccncc2)CCC3)cc1 [Compound 27, 2-(4-Bromophenyl)-3-(4-pyridyl)-6,7-dihydro-[5H]-pyrrolo-[1,2-a]-imidazole]",
,,"COc1ccc(-c2nc3n(c2-c2ccncc2)CCC3=O)cc1 [Compound E, 2-(4-Methoxyphenyl)-3-(4-pyridyl)-7-oxo-5,6-dihydro-7-H-pyrrolo-[1,2-a]imidazole]","IC50 ([2]; Homo sapiens, Monocyte): 1000 nM"
,,"COc1ccc(-c2nc3n(c2-c2ccncc2)CCC3O)cc1 (stereo not drawn) [Compound F, 5,6-dihydro-2-(4-methoxyphenyl)-3-(4-pyridinyl)-[7H]-pyrrolo[1,2-a]-imidazole-7-ol]","IC50 ([2]; Homo sapiens, Monocyte): 1000 nM"
,,"[O-][S+]1CCn2c1nc(-c1ccc(F)cc1)c2-c1ccncc1 (stereo not drawn) [Compound I, 6-(4-Fluorophenyl)-5-(4'-pyridyl)-2,3-dihydroimidazo[2,1-b]thiazole-1-oxide]","IC50 ([2]; Homo sapiens, Monocyte): 200 nM"
,,"Fc1ccc(-c2nc3n(c2-c2ccncc2)CCC3)cc1 [Compound M, 2-(4-Fluorophenyl)-3-(4-pyridyl)-6,7-dihydro-[5H]-pyrrolo-[1,2-a]-imidazole]","IC50 ([2]; Homo sapiens, Monocyte): 200 nM"
,,"Fc1ccc(-c2c(-c3ccncc3)nc3n2CCC3)cc1 [Compound N, 3-(4-Fluorophenyl)-2-(4-pyridyl)-6,7-dihydro-[5H]-pyrrolo-[1,2-a]-imidazole]","IC50 ([2]; Homo sapiens, Monocyte): 1000 nM"

Compound,"IC50 [1, 4] [nM]","IC50 [1, 5] [nM]",other results
"CC(=O)OCSc1ccc(-c2nc3n(c2-c2ccncc2)CCC3)cc1 [Compound 10, 2-(4-acetoxymethylthiophenyl)-3-(4-pyridyl)-6,7-dihydro-[5H]-pyrrolo-[1,2-a]-imidazole]",6300,,"IC50 ([2]; Homo sapiens, Monocyte): 3000 nM"
